Laboratory results reported in ChEMBL document CHEMBL3745611 (J Med Chem, 2015).
Values after ≈ are worked out from the molar mass of the structure shown. Active and inactive are the calls of the source. No cut-off for these calls is given here.

Assays:
[1] = target: T1, Transitional endoplasmic reticulum ATPase (Homo sapiens, UniProt P55072)
Description: Inhibition of human p97 ATPase incubated for 15 mins by ADP Glo luminescence assay

[2] = Half life in mouse hepatocytes
[3] = Mean residence time in mouse at 3 mg/kg, iv; conditions: in vivo
[4] = Aqueous solubility of compound; type: physicochemical; conditions: aqueous medium
Plasma = test: Drug uptake in plasma of mouse xenografted with human A549 cells at 150 mg/kg, po measured at 2 to 24 hrs; type: ADME, organism-based; conditions: in vivo
in vivo [5] = conditions: mouse, po, 25 mg/kg
Description: Cmax in mouse at 25 mg/kg, po

[6] = Apparent permeability from apical to basolateral side in human Caco2 cells; conditions: Caco-2
[7] = Mean residence time in mouse at 25 mg/kg, po; conditions: in vivo
in vivo [8] = conditions: mouse, po, 25 mg/kg; remark: listed apart in the source
Description: Tmax in mouse at 25 mg/kg, po

A549 [9] = test: Drug uptake in human A549 cells xenografted in mouse at 150 mg/kg, po measured at 2 to 24 hrs; type: ADME, organism-based; conditions: in vivo
A549 [10] = test: cells; conditions: Homo sapiens, A549, 72 h
Description: Cytotoxicity against human A549 cells assessed as cell viability after 72 hrs by Celltiter-Glo assay

AMO1 = conditions: Homo sapiens
Description: Antitumor activity against human AMO1 cells xenografted in nude SCID beige mouse assessed as tumor growth inhibition at 1 mg/kg, iv administered twice per week

A549 [11] = test: Antitumor activity against human A549 cells xenografted in […] SCID beige mouse assessed as tumor growth inhibition at 1 mg/kg, iv administered twice per week; type: functional, organism-based
[12] = target: T1, Transitional endoplasmic reticulum ATPase; remark: listed apart in the source
Description: Inhibition of p97 ATPase in human A549 cells assessed as accumulation of K48 poly-ubiquitinated proteins incubated for 6 hrs by immunofluorescence assay

HCT-116 [13] = test: Antitumor activity against human HCT116 cells xenografted in nude mouse assessed as tumor growth inhibition at 300 mg/kg, po qd; type: functional, organism-based
[14] = target: T1, Transitional endoplasmic reticulum ATPase; remark: listed apart in the source
Description: Inhibition of p97 ATPase in human A549 cells assessed as accumulation of CHOP poly-ubiquitinated proteins incubated for 6 hrs by immunofluorescence assay

[15] = target: T1, Transitional endoplasmic reticulum ATPase; test: Inhibition of p97 ATPase in human A549 cells assessed as reduction in p62 protein incubated for 6 hrs by immunofluorescence assay; type: cell-based
[16] = Half life in mouse liver microsomes; type: ADME; conditions: for half-life: liver microsomes
[17] = target: T1, Transitional endoplasmic reticulum ATPase; test: Inhibition of p97 ATPase (unknown origin)
[18] = Metabolic stability of compound in mouse liver microsomes; type: ADME
HCT-116 [19] = test: Antitumor activity against human HCT116 cells xenografted in nude mouse assessed as tumor growth inhibition at 50 mg/kg, po q2d for 12 days; type: functional, organism-based

T1 sequence (P55072 whole entry): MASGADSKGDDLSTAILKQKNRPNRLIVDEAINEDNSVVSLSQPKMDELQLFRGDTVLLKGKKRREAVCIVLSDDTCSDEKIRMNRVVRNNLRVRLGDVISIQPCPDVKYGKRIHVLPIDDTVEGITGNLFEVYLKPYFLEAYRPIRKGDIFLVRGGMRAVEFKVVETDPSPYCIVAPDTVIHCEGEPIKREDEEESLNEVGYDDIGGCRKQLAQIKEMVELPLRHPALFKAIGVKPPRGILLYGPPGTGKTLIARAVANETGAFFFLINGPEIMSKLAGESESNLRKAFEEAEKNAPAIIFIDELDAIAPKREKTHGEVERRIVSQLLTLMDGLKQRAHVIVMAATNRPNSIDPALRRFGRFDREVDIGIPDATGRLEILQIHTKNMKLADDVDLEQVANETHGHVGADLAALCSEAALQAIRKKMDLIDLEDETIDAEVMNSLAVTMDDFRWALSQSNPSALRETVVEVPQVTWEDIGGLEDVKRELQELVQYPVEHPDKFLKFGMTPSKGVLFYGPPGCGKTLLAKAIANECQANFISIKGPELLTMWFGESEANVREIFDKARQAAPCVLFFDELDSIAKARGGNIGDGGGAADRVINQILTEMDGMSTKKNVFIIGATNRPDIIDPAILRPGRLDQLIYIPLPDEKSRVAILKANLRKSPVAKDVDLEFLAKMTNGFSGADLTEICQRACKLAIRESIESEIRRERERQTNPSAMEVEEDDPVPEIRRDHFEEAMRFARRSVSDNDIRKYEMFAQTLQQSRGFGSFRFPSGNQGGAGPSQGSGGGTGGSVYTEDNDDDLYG

COCCOc1cccc2c(NCc3ccccc3)nc(-n3c(N)nc4ccccc43)nc12
IC50 [1]: 907 nM

Cc1cc2c(C(N)=O)cccc2n1-c1nc2c(c(NCc3ccccc3)n1)COCC2 [CB-5083]
half-life [2]: 172 min
MRT [3]: 70.2 min
solubility [4]: 32 µg/mL (≈ 77.4 µM)
Drug uptake (Plasma): Active
Cmax (in vivo [5]): 7.95 µM
Papp A→B [6]: 52.4 ×10⁻⁶ cm/s
MRT [7]: 183 min
Tmax (in vivo [8]): 30 min
Drug uptake (A549 [9]): Active

CNc1nc2ccccc2n1-c1nc(NCc2ccccc2)c2cccc(OC)c2n1
IC50 [1]: 233 nM

Cc1cc2c(C(N)=O)cccc2n1-c1nc2c(c(NCc3ccccc3)n1)CCOC2
IC50 (A549 [10]): 1070 nM

Cc1[nH]c2ccccc2c1-c1nc2c(c(NCc3ccccc3)n1)CCCC2
IC50 (A549 [10]): 15800 nM
IC50 [1]: 149 nM

COc1cccc2c(NC(=O)c3ccccc3)nc(-n3c(N)nc4ccccc43)nc12
IC50 [1]: > 5000 nM

Cc1nn2ccccc2c1-c1nc2c(c(NCc3ccccc3)n1)CCCC2
IC50 (A549 [10]): 25000 nM
IC50 [1]: 367 nM

COc1cccc2c(NCc3ccccc3)nc(-n3c(N)nc(C)c3C)nc12
IC50 [1]: > 5000 nM

COc1cccc2c(NCc3ccccc3)nc(-n3c(=O)[nH]c4ccccc43)nc12
IC50 [1]: 1070 nM

Cc1cc2c(-c3nnn[nH]3)cccc2n1-c1nc2c(c(NCc3ccccc3)n1)CNCC2
IC50 (A549 [10]): > 40000 nM
IC50 [1]: 15 nM

COc1cccc2c(CCc3ccccc3)nc(-n3c(N)nc4ccccc43)nc12
IC50 [1]: > 5000 nM

COc1cccc2c(OCc3ccccc3)nc(-n3c(N)nc4ccccc43)nc12
IC50 [1]: > 5000 nM

COc1cccc2c(N(C)Cc3ccccc3)nc(-n3c(N)nc4ccccc43)nc12
IC50 [1]: > 5000 nM

FC(F)(F)c1cc2ccccc2n1-c1nc2c(c(NCc3ccccc3)n1)CCCC2
IC50 (A549 [10]): > 40000 nM
IC50 [1]: 651 nM

COCCOc1cccc2c(NCc3ccccc3)nc(-n3c(C)nc4ccccc43)nc12
IC50 [1]: 304 nM

Cc1nc2ccccn2c1-c1nc2c(c(NCc3ccccc3)n1)CCCC2
IC50 (A549 [10]): 18200 nM
IC50 [1]: 248 nM

CNC(=O)c1cccc2c1cc(C)n2-c1nc2c(c(NCc3ccccc3)n1)CNCC2
IC50 (A549 [10]): 6030 nM
IC50 [1]: 215 nM

Nc1nc2ccccc2n1-c1nc(NCc2ccccc2)c2ccsc2n1
IC50 [1]: 3000 nM

COc1cccc2c(NC(C)c3ccccc3)nc(-n3c(N)nc4ccccc43)nc12 (configuration not stated)
IC50 [1]: > 5000 nM

Cc1cc2c(F)cccc2n1-c1nc2c(c(NCc3ccccc3)n1)CNCC2
IC50 (A549 [10]): 6280 nM
IC50 [1]: 342 nM

Nc1nc2ccccc2n1-c1nc2c(c(NCc3ccccc3)n1)CCCC2
IC50 [1]: 425 nM

COc1cccc2c(NCCc3ccccc3)nc(-n3c(N)nc4ccccc43)nc12
IC50 [1]: > 5000 nM

COc1ccc2c(c1)cc(C)n2-c1nc2c(c(NCc3ccccc3)n1)CNCC2
IC50 [1]: > 5000 nM

CC(C)C[C@H](NC(=O)[C@H](Cc1ccccc1)NC(=O)c1cnccn1)B(O)O
TGI (AMO1): Active
TGI (A549 [11]): inactive

COc1nc2ccccc2n1-c1nc2c(c(NCc3ccccc3)n1)CCCC2
solubility [4]: < 1 µg/mL
IC50 (A549 [10]): 7450 nM
IC50 [12]: 4240 nM
IC50 [1]: 76 nM
TGI (HCT-116 [13]): Active
IC50 [14]: 9340 nM
IC50 ([15]; read-out: IC50): 4840 nM
half-life [16]: 11 min

COc1cccc2c(NCc3ccccc3)nc(Cn3c(C)nc4ccccc43)nc12
IC50 [1]: > 5000 nM

COc1cccc2c(NCc3ccccc3)nc(-n3c(C)nc4ccccc43)nc12
IC50 [1]: 152 nM

Cc1cc2c(C(F)(F)F)cccc2n1-c1nc2c(c(NCc3ccccc3)n1)CNCC2
IC50 [1]: 3910 nM

COc1cc2ccccc2n1-c1nc2c(c(NCc3ccccc3)n1)CCCC2
IC50 (A549 [10]): 7110 nM
IC50 [1]: 43 nM

Cc1cc2c(C(N)=O)cccc2n1-c1nc2c(c(NCc3ccccc3)n1)CNCC2
solubility [4]: 1260 µg/mL (≈ 3040 µM)
IC50 (A549 [10]): 2330 nM
IC50 [12]: 1790 nM
IC50 [1]: 40 nM
IC50 [14]: 2860 nM
IC50 ([15]; read-out: IC50): 2000 nM
half-life [16]: 105 min

CCc1cc2ccccc2n1-c1nc2c(c(NCc3ccccc3)n1)CCCC2
IC50 [1]: 445 nM

Cc1cc2ccccc2n1-c1nc2c(c(NCc3ccccc3)n1)CCCC2
IC50 (A549 [10]): 6530 nM
IC50 [1]: 47 nM

Nc1nc2ccccc2n1-c1nc2c(c(NCc3ccccc3)n1)CNCC2
IC50 [1]: > 5000 nM

Cc1cc2cc(C#N)ccc2n1-c1nc2c(c(NCc3ccccc3)n1)CNCC2
IC50 [1]: > 5000 nM

O=C(CCl)Nc1cccc(NC2=NS(=O)(=O)c3ccccc32)c1
IC50 [17]: 370 nM

COc1cccc2c(NCc3ccccc3)nc(-n3c(NC(C)=O)nc4ccccc43)nc12
IC50 [1]: > 5000 nM

COc1cccc2c(NCc3ccccc3)nc(-n3c(N)nc4c3CCCC4)nc12
IC50 [1]: > 5000 nM

COCc1cc2ccccc2n1-c1nc2c(c(NCc3ccccc3)n1)CCCC2
IC50 (A549 [10]): > 40000 nM
IC50 [1]: 795 nM

Cc1cc2c(C(=O)NC(C)C)cccc2n1-c1nc2c(c(NCc3ccccc3)n1)CNCC2
IC50 [1]: 4830 nM

Cc1nc2ccccc2n1-c1nc2c(c(NCc3ccccc3)n1)CCCC2
IC50 [1]: 98 nM

Cc1cc2c(Cl)cccc2n1-c1nc2c(c(NCc3ccccc3)n1)CNCC2
IC50 (A549 [10]): 7240 nM
IC50 [1]: 632 nM

Cc1ccc2cc(C)n(-c3nc4c(c(NCc5ccccc5)n3)CNCC4)c2c1
IC50 [1]: 3860 nM

COc1cccc2c(Cc3ccccc3)nc(-n3c(N)nc4ccccc43)nc12
IC50 [1]: > 5000 nM

COc1nc2ccccc2n1-c1nc(NCc2ccccc2)c2ncsc2n1
IC50 [1]: 180 nM

COCCOc1cccc2c(NCc3ccccc3)nc(-n3c(OC)nc4ccccc43)nc12
IC50 [1]: 370 nM

COc1cccc2c(NCc3ccccc3)nc(Nc3nc4ccccc4[nH]3)nc12
IC50 [1]: > 5000 nM

NCc1cc2ccccc2n1-c1nc2c(c(NCc3ccccc3)n1)CCCC2
IC50 (A549 [10]): 4700 nM
IC50 [1]: 153 nM

COc1cccc2c(NCc3ccccc3)nc(-n3c(N(C)C)nc4ccccc43)nc12
IC50 [1]: 227 nM

Cc1cc2ccccc2n1-c1nc2c(c(NCc3ccccc3)n1)CNCC2
solubility [4]: 750 µg/mL (≈ 2030 µM)
IC50 (A549 [10]): 8640 nM
IC50 [12]: 15300 nM
IC50 [1]: 192 nM
IC50 [14]: 9150 nM
Stability [18]: Stable
IC50 ([15]; a549): Not Active
t1/2 ([16]; microsomes): Stable

Cc1ccc2c(c1)cc(C)n2-c1nc2c(c(NCc3ccccc3)n1)CNCC2
IC50 [1]: > 5000 nM

COc1ccc2cc(C)n(-c3nc4c(c(NCc5ccccc5)n3)CNCC4)c2c1
IC50 [1]: > 5000 nM

Cc1cc2c(C(N)=O)cccc2n1-c1nc2c(c(NCc3ccccc3)n1)CCNC2
IC50 (A549 [10]): 2440 nM
IC50 [1]: 71 nM

Cc1cc2c(C(=O)O)cccc2n1-c1nc2c(c(NCc3ccccc3)n1)CNCC2
IC50 (A549 [10]): > 40000 nM
IC50 [1]: 95 nM

CCc1nc2ccccc2n1-c1nc(NCc2ccccc2)c2cccc(OC)c2n1
IC50 [1]: > 5000 nM

Cc1cc2c(C(N)=O)cccc2n1-c1nc2c(c(NCc3ccccc3)n1)CCCC2
solubility [4]: 4 µg/mL (≈ 9.72 µM)
Drug uptake (Plasma): Active
TGI (HCT-116 [19]): Active
IC50 (A549 [10]): 590 nM
IC50 [12]: 500 nM
IC50 [1]: 6 nM
IC50 [14]: 580 nM
Drug uptake (A549 [9]): Active
IC50 ([15]; read-out: IC50): 250 nM
half-life [16]: 44 min

COc1cccc2c(NCc3ccccc3)nc(-n3cnc4ccccc43)nc12
IC50 [1]: > 5000 nM

Cc1cc2c(C(=O)N(C)C)cccc2n1-c1nc2c(c(NCc3ccccc3)n1)CNCC2
IC50 [1]: > 5000 nM

COc1cccc2c1cc(C)n2-c1nc2c(c(NCc3ccccc3)n1)CNCC2
IC50 [1]: 2080 nM

COc1cccc2c(NCc3ccccc3)nc(-n3c(OC)nc4ccccc43)nc12
IC50 [1]: 145 nM

Cc1cc2ccc(C#N)cc2n1-c1nc2c(c(NCc3ccccc3)n1)CNCC2
IC50 [1]: 8910 nM

Cc1nc2ccccc2n1-c1nc2c(c(NCc3ccccc3)n1)CNCC2
IC50 [1]: > 5000 nM

COc1cccc2c(NCc3ccccc3)nc(-n3c(N)nc4ccccc43)nc12
solubility [4]: < 1 µg/mL
IC50 (A549 [10]): 3260 nM
IC50 [12]: 6140 nM
IC50 [1]: 815 nM
IC50 [14]: 6610 nM
IC50 ([15]; a549): Not Active
half-life [16]: 7 min

Cc1cccc2c1cc(C)n2-c1nc2c(c(NCc3ccccc3)n1)CNCC2
IC50 (A549 [10]): 7850 nM
IC50 [1]: 648 nM

OCc1cc2ccccc2n1-c1nc2c(c(NCc3ccccc3)n1)CCCC2
IC50 (A549 [10]): 8400 nM
IC50 [1]: 68 nM

COc1nc2ccccc2n1-c1nc2c(c(NCc3ccccc3)n1)CNCC2
IC50 [1]: 3130 nM

Cc1cc2c(C#N)cccc2n1-c1nc2c(c(NCc3ccccc3)n1)CNCC2
IC50 (A549 [10]): 8920 nM
IC50 [1]: 144 nM
